The values that follow come from patent US10478421B1, “Sortilin binding compounds, formulations, and uses thereof” (University of Florida, priority 2016, dated 2019).

The term Kd denotes the free concentration of one partner at which half of the binding sites on the other are occupied at equilibrium, for simple one-to-one binding. A lower Kd goes with higher affinity.

In the test the target is T1, human sortilin (Homo sapiens, UniProt Q99523).
T1 sequence (Q99523 78-831): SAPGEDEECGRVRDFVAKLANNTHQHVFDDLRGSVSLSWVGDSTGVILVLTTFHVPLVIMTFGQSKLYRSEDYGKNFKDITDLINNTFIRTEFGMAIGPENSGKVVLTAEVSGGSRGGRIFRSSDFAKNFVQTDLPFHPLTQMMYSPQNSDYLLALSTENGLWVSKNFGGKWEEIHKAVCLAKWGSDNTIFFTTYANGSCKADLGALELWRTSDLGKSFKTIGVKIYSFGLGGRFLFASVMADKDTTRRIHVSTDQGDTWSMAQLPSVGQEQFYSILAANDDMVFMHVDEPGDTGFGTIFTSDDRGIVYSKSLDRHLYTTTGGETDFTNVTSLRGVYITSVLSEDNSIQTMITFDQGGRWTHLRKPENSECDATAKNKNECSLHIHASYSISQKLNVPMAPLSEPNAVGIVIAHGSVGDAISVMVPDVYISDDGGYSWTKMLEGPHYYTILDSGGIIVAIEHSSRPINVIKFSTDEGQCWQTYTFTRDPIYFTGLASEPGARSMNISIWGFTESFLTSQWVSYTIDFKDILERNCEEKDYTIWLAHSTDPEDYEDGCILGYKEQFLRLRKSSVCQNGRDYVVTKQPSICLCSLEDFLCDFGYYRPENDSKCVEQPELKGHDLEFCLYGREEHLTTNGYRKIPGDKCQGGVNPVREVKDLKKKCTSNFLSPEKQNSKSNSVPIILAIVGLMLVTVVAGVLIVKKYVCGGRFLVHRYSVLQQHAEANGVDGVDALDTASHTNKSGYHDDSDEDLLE
As to the kind of experiment: Thermophoresis binding to human sortilin. As for the experimental part:
Due to inherent fluorescence of 541 small molecule, thermophoresis was performed in two different buffer conditions (PBS n=3 and MST n=2) and at two sets of concentration ranges. […] SPR indicates a high and low affinity binding site of cpd984 to human sortilin of hsortilin with Kd of about 200 μM and about 20 nM.

Consider `CN1CCC[C@H]1C(=O)Nc1cccc(NC(=O)CCc2ccccc2)c1` [cpd984, (2S)-1-methyl-N-{3-[(3-phenylpropanoyl)-amino]phenyl} pyrrolidine-2-carboxamide], for which the Kd by setting is: (high affinity binding range) 0.007 µM; (low affinity binding range) 100 to 300 µM.
